Laboratory results: US8247211B2, “Glycopeptide antibiotics” (American Cyanamid Company, priority 2001, dated 2012)

Assays:
Assay in all cases: In vitro antibacterial evaluation: minimum inhibitory concentration (MIC), broth dilution method
Assay type in all cases: cell-based
Staphylococcus sp. = conditions: 18 hours at 35° C.
In short: (§1)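 Susceptibility determined by NCCLS-recommended broth dilution (M7-A2), Muller-Hinton II […]. Concentration span 64-0.06 μg/mL, inoculum 5×10^5 CFU/mL. Isolates include strains resistant to methicillin, penicillin and/or vancomycin.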

Escherichia coli [1] = system: Escherichia coli
In short: as §1

Enterococcus sp. = system: Enterococcus sp.
In short: as §1

Streptococcus sp. = conditions: 18 hours at 35° C.
In short: as §1

Escherichia coli [2] = system: Escherichia coli; remark: listed apart in the source

α-O-[(Benzylamino)carbonyl]-cyclo[glycyl-β-methylphenylalanyl-O-(4-O-hexopyranosylhexopyranosyl)tyrosyl-3-(2-iminoimidazolidin-4-yl)seryl-3-(3-hexopyranosyl-2-iminoimidazolidin-4-yl)serylseryl] [Example 257a]
0.12 µg/mL: MIC Streptococcus pyogenes (GC 4563) (Streptococcus sp.; Streptococcus pyogenes (GC 4563)) | MIC Streptococcus pyogenes (GC 4563) (Streptococcus sp.; broth dilution, strain GC 4563)
8 µg/mL: MIC Coagulase Negative Staphylococcus (GC 4547) (Staphylococcus sp.; Coagulase Negative Staphylococcus (GC 4547)) | MIC Coagulase Negative Staphylococcus (GC 4548) (Staphylococcus sp.; Coagulase Negative Staphylococcus (GC 4548)) | MIC Coagulase Negative Staphylococcus (GC 4549) (Staphylococcus sp.; Coagulase Negative Staphylococcus (GC 4549)) | MIC Staphylococcus haemolyticus (GC 4546) (Staphylococcus sp.; Staphylococcus haemolyticus (GC 4546)) | MIC Enterococcus faecium (GC 4557) (Enterococcus sp.; Enterococcus faecium (GC 4557)) | MIC Enterococcus faecium (GC 4557) (Enterococcus sp.; broth dilution, 18 hours at 35° C., strain GC 4557) | MIC Streptococcus agalactiae (GC 4564) (Streptococcus sp.; Streptococcus agalactiae (GC 4564)) | MIC Streptococcus agalactiae (GC 4564) (Streptococcus sp.; broth dilution, strain GC 4564)
>0.5 µg/mL: MIC Escherichia coli (GC 4559) (Escherichia coli [1]; Escherichia coli (GC 4559)) | MIC Enterococcus avium (GC 4558) (Enterococcus sp.; Enterococcus avium (GC 4558)) | MIC Enterococcus faecalis (ATCC 29212) (Enterococcus sp.; Enterococcus faecalis (ATCC 29212)) | MIC Enterococcus faecalis (GC 2242) (Enterococcus sp.; Enterococcus faecalis (GC 2242), 18 hours at 35° C.) | MIC Enterococcus faecalis (GC 3059) (Enterococcus sp.; Enterococcus faecalis (GC 3059), 18 hours at 35° C.) | MIC Enterococcus faecalis (GC 4552) (Enterococcus sp.; Enterococcus faecalis (GC 4552), 18 hours at 35° C.) | MIC Enterococcus faecalis (GC 4553) (Enterococcus sp.; Enterococcus faecalis (GC 4553)) | MIC Enterococcus faecalis (GC 4554) (Enterococcus sp.; Enterococcus faecalis (GC 4554)) | MIC Enterococcus faecalis (GC 6189) (Enterococcus sp.; Enterococcus faecalis (GC 6189)) | MIC Enterococcus faecalis (ATCC 29212) (Enterococcus sp.; broth dilution, 18 hours at 35° C., strain ATCC 29212) | MIC Enterococcus faecalis (GC 2242) (Enterococcus sp.; broth dilution, 18 hours at 35° C., strain GC 2242) | MIC Enterococcus faecalis (GC 3059) (Enterococcus sp.; broth dilution, 18 hours at 35° C., strain GC 3059) | MIC Enterococcus faecalis (GC 4552) (Enterococcus sp.; broth dilution, 18 hours at 35° C., strain GC 4552) | MIC Enterococcus faecalis (GC 4553) (Enterococcus sp.; broth dilution, 18 hours at 35° C., strain GC 4553) | MIC Enterococcus faecalis (GC 4554) (Enterococcus sp.; broth dilution, 18 hours at 35° C., strain GC 4554) | MIC Enterococcus avium (GC 4558) (Enterococcus sp.; broth dilution, 18 hours at 35° C., strain GC 4558) | MIC Enterococcus faecalis (GC 6189) (Enterococcus sp.; broth dilution, 18 hours at 35° C., strain GC 6189) | MIC Escherichia coli (ATCC 25922) (Escherichia coli [2])
4 µg/mL: MIC Coagulase Negative Staphylococcus (GC 6257) (Staphylococcus sp.; Coagulase Negative Staphylococcus (GC 6257)) | MIC Streptococcus pneumoniae (GC 4565) (Streptococcus sp.; Streptococcus pneumoniae (GC 4565)) | MIC Streptococcus pneumoniae (GC 4565) (Streptococcus sp.; broth dilution, strain GC 4565)
1 µg/mL: MIC Streptococcus pneumoniae (ATCC 6301) (Streptococcus sp.; Streptococcus pneumoniae (ATCC 6301)) | MIC Streptococcus pneumoniae (GC 1894) (Streptococcus sp.; Streptococcus pneumoniae (GC 1894)) | MIC Streptococcus pneumoniae (ATCC 6301) (Streptococcus sp.; broth dilution, strain ATCC 6301) | MIC Streptococcus pneumoniae (GC 1894) (Streptococcus sp.; broth dilution, strain GC 1894)
0.5 µg/mL: MIC Staphylococcus aureus (ATCC 29213) (Staphylococcus sp.; Staphylococcus aureus (ATCC 29213)) | MIC Staphylococcus aureus (GC 1131) (Staphylococcus sp.; Staphylococcus aureus (GC 1131)) | MIC Staphylococcus aureus (GC 3051) (Staphylococcus sp.; Staphylococcus aureus (GC 3051)) | MIC Staphylococcus aureus (GC 3053) (Staphylococcus sp.; Staphylococcus aureus (GC 3053)) | MIC Staphylococcus aureus (GC 4541) (Staphylococcus sp.; Staphylococcus aureus (GC 4541)) | MIC Staphylococcus aureus (GC 4542) (Staphylococcus sp.; Staphylococcus aureus (GC 4542)) | MIC Staphylococcus aureus (GC 4544) (Staphylococcus sp.; Staphylococcus aureus (GC 4544)) | MIC Staphylococcus aureus (GC 4545) (Staphylococcus sp.; Staphylococcus aureus (GC 4545)) | MIC Staphylococcus aureus-SMITH (GC 4543) (Staphylococcus sp.; Staphylococcus aureus-SMITH (GC 4543)) | MIC Staphylococcus aureus (ATCC 29213) (Staphylococcus sp.; broth dilution, strain ATCC 29213) | MIC Staphylococcus aureus (GC 1131) (Staphylococcus sp.; broth dilution, strain GC 1131) | MIC Staphylococcus aureus (GC 3051) (Staphylococcus sp.; broth dilution, strain GC 3051) | MIC Staphylococcus aureus (GC 3053) (Staphylococcus sp.; broth dilution, strain GC 3053) | MIC Staphylococcus aureus (GC 4541) (Staphylococcus sp.; broth dilution, strain GC 4541) | MIC Staphylococcus aureus (GC 4542) (Staphylococcus sp.; broth dilution, strain GC 4542) | MIC Staphylococcus aureus (GC 4544) (Staphylococcus sp.; broth dilution, strain GC 4544) | MIC Staphylococcus aureus (GC 4545) (Staphylococcus sp.; broth dilution, strain GC 4545) | MIC Escherichia coli (GC 4560) (Escherichia coli [1]; Escherichia coli (GC 4560)) | MIC Enterococcus faecalis (GC 2691) (Enterococcus sp.; Enterococcus faecalis (GC 2691), 18 hours at 35° C.) | MIC Enterococcus faecalis (GC 2691) (Enterococcus sp.; broth dilution, 18 hours at 35° C., strain GC 2691)
>32 µg/mL: MIC Enterococcus faecium (GC 2243) (Enterococcus sp.; Enterococcus faecium (GC 2243)) | MIC Enterococcus faecium (GC 4556) (Enterococcus sp.; Enterococcus faecium (GC 4556)) | MIC Enterococcus faecium (GC 2243) (Enterococcus sp.; broth dilution, 18 hours at 35° C., strain GC 2243) | MIC Enterococcus faecium (GC 4556) (Enterococcus sp.; broth dilution, 18 hours at 35° C., strain GC 4556)
32 µg/mL: MIC Coagulase Negative Staphylococcus (GC 4551) (Staphylococcus sp.; Coagulase Negative Staphylococcus (GC 4551))
